US8568784B2, “Nanoparticles for delivery of active agents” (Morehouse School of Medicine, priority 2006, dated 2013)

Experiment: Percent entrapment and loading studies of particles
Format: physicochemical
Conditions: entrapped in PCL-XP particles

entrapment efficiency [%] | loading per weight of the particles [%] | Structure (SMILES)
~100 | ~20 | O=S(=O)([O-])c1cc(S(=O)(=O)Cl)ccc1C1=c2cc3c4c(c2Oc2c1cc1c5c2CCCN5CCC1)CCC[N+]=4CCC3 [TR, Texas Red]
~100 | ~20 | [Gd] [gadolinium]

Structure (SMILES) | entrapment efficiency [%] | loading per weight of the particles [%]
N.N.[Cl][Pt][Cl] [cisplatin] | ~100 | ~20
